System: Rats
Assay: Blood pressure measurements after i.v. injections
Assay type: in vivo
Conditions: in the same animals, dose not stated

CNC[C@H](O)c1cccc(O)c1 [phenylephrine] was tested, and the arterial pressure was “clear increase in pressure”.

Reference: patent publication EP1198477B1, “PROLACTIN-RELEASING PEPTIDE AND USE IN TREATING PAIN” (Oy Juvantia Pharma Ltd, priority 1999, dated 2001)
